Measurements reported in patent US8236772B2, “Methods of modulating angiogenesis and screening compounds for activity in modulating angiogenesis” (The Board of Trustees of the Leland Stanford Junior …, priority 2005, dated 2012).
“Also recorded” adds a separate entry of the source. Like-named read-outs stand apart in the source and are kept apart here.

Columns and labels:
[1] = tested on: thioredoxin activity in human microvascular endothelial cells; test: Thioredoxin bioassay (colorimetric, DTNB) on HMVEC protein extracts; format: cell-based; settings: for thioredoxin activity after siRNA transfection: in the absence of the stimuli, vs vehicle control, FIG. 6A
Protocol: Thioredoxin Bioassay. Thioredoxin was assayed based upon previously published colorimetric protocols. Wang et al. (2002) J. Biol Chem. 277:26496-26500. The level of thioredoxin activity is assessed at […] via the […] of a colorimetric substrate DTNB (5,5′-dithiobis(2-nitrobenzoic acid)). Protein extracts were obtained by subjecting cells to a lysis buffer (20 mM HEPES (pH 7.9), 300 mM NaCl, 100 mM KCl, 10 mM EDTA, 0.1% Nonidet P-40, PMSF protease inhibitors).
Double-stranded siRNA were transfected into cells (Lipofectamine2000 reagent, Invitrogen). 24 hours after transfection, HMVEC migration experiments were performed, in the presence of vehicle or stimuli. Cell migration and thioredoxin activity were assayed as described above.

[2] = tested on: human microvascular endothelial cell (HMVECs)
Excerpt: To further investigate the effects of nAChR-dependent pathways on EC migration, the effect of the nAChR antagonist, hexamethonium, on EC migration induced by nicotine, VEGF and bFGF was studied.

[3] = tested on: human microvascular endothelial cell (HMVEC) migration; test: Cell migration assay (wounding) on HMVEC; format: cell-based; settings: for effect of siRNA on growth factor induced endothelial cell migration: 96 hours after transfection, FIG. 7; for HMVEC migration after siRNA transfection: in the absence of added growth factors, vs vehicle control, FIG. 6B
HMVECs = test: cDNA microarray analysis of HMVECs; format: cell-based, human
Protocol: Microarray Analyses. HMVECs were grown to 50-70% confluency. Subconfluent rather than confluent HMVEC cultures were studied because they more closely resemble conditions associated with cell migration in vivo, and because this condition is associated with increased EC expression of α7-nAChRs. Heeschen et al. (2002) J. Clin. Invest. 110:527-536. The concentration of the FBS in the media was then reduced to 1% so as to render the endothelial cells quiescent. After 24 hours, nicotine (10^−8M), VEGF (10 ng/ml) or bFGF (10 ng/ml) was added. Total RNA was then harvested at 24 hours. Five separate experiments per condition were processed for cDNA microarray analysis. Fluorescently labeled cDNAs (stimulated HMVECs versus vehicle-treated HMVECs at 24 hours post incubation) were hybridized on cDNA microarrays containing 39711 nonredundant cDNA clones, representing 26,260 unique UniGene clusters (SFGF, Stanford, Calif.). Eisen et al. (1998) Proc Natl Acad Sci USA 95:14863-14868. Scanning of processed microarray slides was performed using a GenePix400A scanner and images analysed with GENEPIX PRO software (Axon Instruments, Foster City, Calif.). Microarray data were stored in the Stanford Microarray Database (Stanford, Calif.). Spots with signal less than 2.5-fold above background were removed in both channels and/or a regression correlation of less than 0.6. Genes with less than 80% evaluable data were excluded and the remaining data was then normalized. The significance of microarrays (SAM) algorithm was used with a one-class design to identify genes differentially expressed by treatment with each stimuli at each timepoint. Tusher et al. (2001) Proc Natl Acad Sci USA. 98:5116-5121. Delta values giving approximately 5% false discovery were chosen. To analyze convergent gene expression profiles, all differentially expressed genes at 24 hours were hierarchically clustered by gene and by array (Cluster software, version 2.11), and the results analysed with Treeview software (version 1.6). Eisen et al. (1998) supra.

[4] = HMVEC, 24 h, effect stronger for bFGF than for nicotine or VEGF, FIG. 3B Panel D
[5] = HMVEC, vs vehicle, nicotine 10^−8M, VEGF 10 ng/ml, bFGF 10 ng/ml, hexamethonium 10^−4M, FIG. 4, 5A
[6] = vs vehicle, nicotine 10^−8M to 10^−4M, VEGF or bFGF 1-10 ng/ml, FIG. 1, 2A, 5B

C[N+](C)(C)CCCCCC[N+](C)(C)C [hexamethonium, hexamethonium bromide]
effect on nicotine-, VEGF- or bFGF-induced thioredoxin activity [1]: inhibited | thioredoxin activity, agent alone [1]: no significant effect | cell death (cellular toxicity) ([2]; antagonist alone, MTT assay): did not induce cell death | effect on growth factor (VEGF or bFGF)-induced EC migration [3]: significantly attenuated | effect on nicotine-induced EC migration [3]: abrogated; also recorded: abolished

CNC1(C)C2CCC(C2)C1(C)C (stereo not shown) [mecamylamine]
cell death (cellular toxicity) [2]: did not induce cell death

CN1CCC[C@H]1c1cccnc1 [nicotine, S-3-(1-methyl-2-pyrrolidinyl)pyridine, reference compound]
expression of the VEGF receptor FLT1 (HMVECs; [4]): induced activation | thioredoxin activity, agent alone [1, 5]: induced HMVEC thioredoxin activity significantly above vehicle; also recorded: increased | thioredoxin activity, agent alone ([1]; HMVEC, vs vehicle, nicotine 10^−8M, VEGF 10 ng/ml, bFGF 10 ng/ml, hexamethonium 10^−4M, FIG. 4, 5A, listed as Nicotine): increased | concentration of maximal stimulation of EC migration ([3]; HMVEC, dose range 10^−8M to 10^−4M, FIG. 2A): 10^−8 M | EC (HMVEC) migration, stimulus alone [3, 6]: greater migratory activity; also recorded: induced human microvascular endothelial cell (HMVEC) migration in a dose-dependent fashion | EC (HMVEC) migration, stimulus alone ([3]; vs vehicle, nicotine 10^−8M to 10^−4M, VEGF or bFGF 1-10 ng/ml, FIG. 1, 2A, 5B, listed as Nicotine): stimulated EC migration in a dose-dependent manner

VEGF
Fold Change CHRM5 (Cholinergic muscarinic receptor 5) (HMVECs): 2.0 | Fold Change CHRNA3 (Nicotinic receptor alpha polypeptide 3) (HMVECs): 1.7 | Fold Change CHRNA10 (Nicotinic receptor alpha polypeptide 10) (HMVECs): 2.0 | Fold Change CHRNB2 (Nicotinic receptor beta polypeptide 2) (HMVECs): 6.9 | Fold Change CHRNB3 (Nicotinic receptor beta polypeptide 3) (HMVECs): 2.2 | expression of the VEGF receptor FLT1 (HMVECs): induced activation | thioredoxin activity, agent alone [1]: induced HMVEC thioredoxin activity significantly above vehicle; also recorded: increased | EC (HMVEC) migration, stimulus alone [3]: induced EC migration | concentration of maximal effects on EC migration [3]: 10 ng/mL

bFGF: human bFGF purchased from R&D Systems; angiogenic growth factor
expression of the VEGF receptor FLT1 (HMVECs; [4]): induced activation | thioredoxin activity, agent alone [1, 5]: less robust (P=0.02 vs. vehicle) but significant increase; also recorded: increased | concentration of maximal effects on EC migration ([3]; HMVEC, range 1-10 ng/ml): 10 ng/mL | EC (HMVEC) migration, stimulus alone [3, 6]: induced EC migration

scrambled siRNA: Scrambled (randomly arranged) RNAi GUUGGCCAUUCUACUUCGCTTdtt (SEQ ID NO:17) used as negative control (GUUGGCCAUUCUACUUCGCTTDTT; dTdT overhang, further chemistry not given here)
thioredoxin activity after siRNA transfection ([1]; HMVEC): no effect | effect of siRNA on growth factor induced endothelial cell migration ([3]; HMVEC): no effect | HMVEC migration after siRNA transfection [3]: no effect

siRNA against TXNIP: Double-stranded siRNA to TXNIP: sense ACAGACUUCGGAGUACCUGtt (SEQ ID NO: 14), antisense CAGGUACUCCGAAGUCUGUtt (SEQ ID NO: 15) (sense ACAGACUUCGGAGUACCUGTT; antisense CAGGUACUCCGAAGUCUGUTT; lower-case overhang letters stated to be dideoxynucleotides, upper case undefined, further chemistry not given here)
thioredoxin activity after siRNA transfection ([1]; HMVEC): significantly stimulated; also recorded: significantly increased | HMVEC migration after siRNA transfection [3]: strongly stimulated; also recorded: significantly increased

siRNA directed against ARHGEF: Double-stranded siRNA to ARHGEF7: sense GCCUGUGUCUCCCAAAUCAtt (SEQ ID NO: 5), antisense UGAUUUGGGAGACACAGGCtt (SEQ ID NO: 6) (sense GCCUGUGUCUCCCAAAUCATT; antisense UGAUUUGGGAGACACAGGCTT; lower-case overhang letters stated to be dideoxynucleotides, upper case undefined, further chemistry not given here)
effect of siRNA on growth factor induced endothelial cell migration ([3]; HMVEC): inhibited

siRNA directed against P4HA: Double-stranded siRNA to P4HA1: sense GGAUUUGUUGGGCAUCCAGtt (SEQ ID NO: 11), antisense CUGGAUGCCCAACAAAUCCtt (SEQ ID NO: 12) (sense GGAUUUGUUGGGCAUCCAGTT; antisense CUGGAUGCCCAACAAAUCCTT; lower-case overhang letters stated to be dideoxynucleotides, upper case undefined, further chemistry not given here)
effect of siRNA on growth factor induced endothelial cell migration ([3]; HMVEC): inhibited

siRNA directed against Rin2: Double-stranded siRNA to Rin2: sense CUGAAACAGGAGAUGGUGCtt (SEQ ID NO: 8), antisense GCACCAUCUCCUGUUUCAGtt (SEQ ID NO: 9) (sense CUGAAACAGGAGAUGGUGCTT; antisense GCACCAUCUCCUGUUUCAGTT; lower-case overhang letters stated to be dideoxynucleotides, upper case undefined, further chemistry not given here)
effect of siRNA on growth factor induced endothelial cell migration ([3]; HMVEC): inhibited

α-bungarotoxin
effect on nicotine-induced EC migration [3]: abolished
